Test results taken from patent US9604973B2, “Anti-cancer polyketide compounds” (priority 2012, dated 2017).

What was measured:
GAPDH = test: RT-PCR of spliced and unspliced mRNA (intron retention) in CLL cells, housekeeping gene; format: cell-based, human; conditions: 4 hours, same concentrations
Description: (§1) FIG. 23: FD-895 and PLAD induced inhibition of splicing in CLL: RT-PCR for analysis of spliced and unspliced mRNAs. CLL cells treated with FD-895, PLAD (10, 100 nM), chemotherapeutic agent like bendamustine (33, 100 μM) and F-Ara-A (3, 10, 33 μM) for 4 hours. RT-PCR for DNAJB1 was performed with primers spanning two exons; products were analyzed on ethidium bromide-stained agarose gels (2%) to visualize the correct size of the unspliced mRNAs. […] The exon structure of DNAJB1 gene is indicated. G, human genomic DNA was used as a control; U, unspliced mRNA; S, spliced mRNA.
(§2) CLL cells were treated with 10 and 100 nM of FD-895 and PLAD, 33 and 100 μM of bendamustine and 3, 10, and 33 μM of F-Ara-A for 4 h. Normal B and CLL cells were treated with 100 nM of FD-895 and PLAD and 10 μM of F-Ara-A for 15 minutes, 30 minutes, 1, 2 and 4 h. Total RNA was extracted using mirVana™ miRNA isolation kit (Ambion Life Technology, USA). After DNase treatment, 200 ng total RNA was reverse-transcribed using a SuperScript™ III first-strand synthesis system (Invitrogen). PCR was performed on 10 ng of the obtained cDNA (or human genomic DNA as a control) in 25 μl of reaction mixture containing Plantinum® PCR SuperMix High-fidelity (Invitrogen Life Technology, USA), and 0.1 μM of each primer of the appropriate pair.
(§3) PCR conditions were 94° C. for 3 min; 35 cycles of 94° C. for 30 s, 60° C. for 30 s, and 72° C. for 1 min; followed by 72° C. for 5 min. PCR products were separated on a 2% agarose gel and stained with ethidium bromide.

DNAJB1 = test: RT-PCR of spliced and unspliced mRNA (intron retention) in CLL cells; format: cell-based, human; conditions: 4 hours, FD-895, PLAD 10, 100 nM, bendamustine 33, 100 μM, F-Ara-A 3, 10, 33 μM
Description: as §1, §2, §3

CLL cells = test: Flow cytometry, % specific induced apoptosis (DiOC6/PI) in primary CLL cells; format: cell-based, human; conditions: Homo sapiens, CLL cell; CLL cells from patient with del (17p) and Tp53 mutation, 48 hours
Description: FIG. 20A-20C: FD-895 and PLAD induce apoptosis in CLL cells but not in normal lymphocytes with a TP53 independent activity: Primary leukemia B cells from CLL (FIG. 20A) patient with del (17p) and Tp53 mutation, (FIG. 20B) patient with wild type p53 and sensitive to F-Ara-A and (FIG. 20C) normal lymphocytes from healthy donor were incubated with FD-895, PLAD and F-Ara-A (0, 10, 100, 1000 10,000 nM) for 48 hours.
FIG. 21: FD-895 and PLAD induce apoptosis in CLL cells not ONLY independently of Tp53 but also independently of SF3B1 mutational status: Primary leukemia B cells from CLL patient with SF3B1 wild, SF3B1 mutation, 17p DEL and normal B and T lymphocytes from healthy donor were incubated with FD-895 and PLAD with 100 nM for 48 hours. After incubation, the samples were harvested and % SIA was measured by flow cytometry as described above. […] Each dots represents number of CLL patient sample and normal B or T cells.
Peripheral blood mononuclear cells (PBMC) from patients with CLL were obtained from the CLL Research Consortium (CRC) tissue bank. The blood samples were collected after obtaining a written informed consent from the patients under a protocol approved by the institutional review board of The University of California, San Diego. All patients met criteria for CLL.^1 CLL B cells and PBMCs were separated from heparinized venous blood of the B-CLL patients by density gradient centrifugation using Ficoll-Hypaque (GE healthcare) as described earlier.^2 The samples that were used had more than 95% positive cells for CD19 and CD5+, as assessed by flow cytometry. CLL B cells were maintained in RPMI 1640 medium supplemented with 10% FBS, 2 mM L-glutamine, and 100 U/mL of penicillin and 100 μg/mL of streptomycin at 37° C. in an atmosphere of 5% CO2.
Apoptotic and viable cells were discriminated via flow cytometry of cells stained with 3,3′ dihexyloxacarbocyanine iodide (DiOC6) (Molecular Probes, Eugene, Oreg., USA) and propidium iodine (Sigma, St Louis, Mo., USA), as described.^3 Using this method viable cells exclude PI and stain brightly positive for DiOC6.

HCT-116 cell line = test: MTT cell proliferation assay; format: cell-based; conditions: HCT-116 cell line; for IC50: MTT
From the text: Structure Activity Relationships (SAR) studies for 1SS, […], 1RS, and […]. It has been reported that ablation of C3, C6 and C7 substituents is detrimental to activity. […] (See FIG. 4). Additional activity was also observed when C17 was left in its natural R configuration.

Cn1c(CCCC(=O)O)nc2cc(N(CCCl)CCCl)ccc21 [Bendamustine]
splicing inhibition of housekeeping gene GAPDH (GAPDH): Neither FD-895, PLAD nor chemotherapy agents showed splicing inhibition
intron retention/splicing inhibition of DNAJB1 (DNAJB1): did not show intron retention/splicing inhibition

Nc1nc(F)nc2c1ncn2[C@@H]1O[C@H](COP(=O)(O)O)[C@@H](O)[C@@H]1O [F-Ara-A, Fludarabine phosphate]
IC50 (CLL cells): > 10000 nM

CC[C@H](OC)[C@@H](C)[C@H]1O[C@@H]1[C@H](O)[C@@H](C)/C=C/C=C(\C)[C@H]1OC(=O)C[C@H](O)CC[C@@](C)(O)[C@@H](OC(C)=O)/C=C/[C@@H]1C [Isomer 1RS]
times more active than FD-895 (HCT-116 cell line): ~25 times
IC50 (HCT-116 cell line): 0.8 ± 0.05 nM

CC[C@H](OC)[C@@H](C)[C@H]1O[C@@H]1[C@@H](O)[C@H](C)/C=C/C=C(\C)[C@H]1OC(=O)C[C@H](O)CC[C@@](C)(O)[C@@H](OC(C)=O)/C=C/[C@@H]1C [Isomer 1SR]
IC50 (HCT-116 cell line): 3.7 ± 0.2 nM

CC[C@H](OC)[C@@H](C)[C@H]1O[C@@H]1[C@@H](O)[C@@H](C)/C=C/C=C(\C)[C@H]1OC(=O)C[C@H](O)CC[C@@](C)(O)[C@@H](OC(C)=O)/C=C/[C@@H]1C [Isomer 1SS]
IC50 (HCT-116 cell line; Homo sapiens): 23 ± 1.2 nM
